Assay results published in EP0973790B1, “ESTRA-5(10),7-DIENES WITH ESTROGENIC ACTIVITY” (Wyeth, priority 1997, dated 1998).

How the values were obtained:
Immature rats = assay: In vivo uterotropic activity; details: for Uterine Weight (mg) ± SD: n=6/group
[1] = target: human estrogen receptor (hER-α) (Homo sapiens, UniProt P03372); assay: Estrogen receptor binding, whole cell test procedure; details: comparison values for known estrogens
human estrogen receptor (hER-α), sequence (P03372 whole entry): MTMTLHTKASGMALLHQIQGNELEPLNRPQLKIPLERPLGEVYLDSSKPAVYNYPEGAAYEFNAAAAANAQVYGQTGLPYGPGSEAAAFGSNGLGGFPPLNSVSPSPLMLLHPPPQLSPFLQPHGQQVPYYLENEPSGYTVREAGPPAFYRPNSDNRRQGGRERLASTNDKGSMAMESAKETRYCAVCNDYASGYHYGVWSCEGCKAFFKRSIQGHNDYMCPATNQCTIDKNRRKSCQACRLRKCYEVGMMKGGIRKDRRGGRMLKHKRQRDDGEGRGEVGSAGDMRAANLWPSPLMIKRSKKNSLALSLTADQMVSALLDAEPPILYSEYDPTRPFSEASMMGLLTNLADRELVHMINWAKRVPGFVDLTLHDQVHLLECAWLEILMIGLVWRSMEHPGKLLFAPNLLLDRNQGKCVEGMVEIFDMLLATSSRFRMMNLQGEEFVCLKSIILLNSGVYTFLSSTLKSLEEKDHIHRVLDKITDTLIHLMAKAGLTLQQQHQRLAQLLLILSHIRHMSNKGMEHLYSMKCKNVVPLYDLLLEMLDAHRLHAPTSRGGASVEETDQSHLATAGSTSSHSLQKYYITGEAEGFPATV

Row | SMILES | Uterine Weight (mg) ± SD (Immature rats; 1 µg, three days S.C.) | Uterine Weight (mg) ± SD (Immature rats; 10 µg, three days S.C.) | Uterine Weight (mg) ± SD (Immature rats; 100 µg, three days S.C.) | Uterine Weight (mg) ± SD (Immature rats; 500 µg, three days S.C.) | also measured
1 | CC12CCC3C(=CCC4=C3CCC(O)C4)C1CCC2=O (stereo not drawn) [5A, estra-5(10),7-dien-3α-ol-17-one] | 28.7 ± 2.7 mg | 33.3 ± 4.4 mg | 66.5 ± 4.7 mg | 78.9 ± 13.6 mg | estimated EC50 (Immature rats; uterine stimulation, in words relative to 5B): somewhat lower
2 | C[C@]12CC[C@@H]3c4ccc(O)cc4CC[C@H]3[C@@H]1CCC2=O [estrone, reference compound] |  |  |  |  | EC50 (Immature rats; estimated in similar test procedures): 0.2 mg/kg
3 | CC12CCC3C(=CCC4=C3CCC(O)C4)C1CCC2=O (stereo not drawn) [5B, estra-5(10),7-dien-3β-ol-17-one] | 31.7 ± 6.6 mg | 43.5 ± 6.9 mg | 79.7 ± 5.8 mg | 82.6 ± 8.6 mg | Uterine Weight (mg) ± SD (Immature rats; 0.1 µg, three days S.C.): 34.1 ± 6.2 mg
4 | C[C@]12CCc3c(ccc4cc(O)ccc34)[C@@H]1CCC2=O [equilenen] |  |  |  |  | Ki [1]: 375 nM
5 | C#C[C@]1(O)CC[C@H]2[C@@H]3CCc4cc(O)ccc4[C@H]3CC[C@@]21C [Ethinyl Estradiol, reference compound] |  |  |  |  | Uterine Weight (mg) ± SD (Immature rats; 0.5 µg, three days): 101.2 ± 2.8 mg
